In assay [1] the test system is DHT-induced AR target genes. Briefly: RNA-seq of DHT-stimulated VCaP and LNCaP cells. The following applies: 10 nM DHT with 100 nM THZ1. In kind it is cell-based, human. As to the method: For AR signaling stimulation experiments, cells were plated in complete media at required confluency. After 24 h cells were washed with DPBS and cultured in RPMI/DMEM without Phenol Red (Invitrogen, 11835030) and 10% charcoal-dextran stripped FBS (Gemini BioProducts, 100-119) for 72 h. Cells were then stimulated with 10 nM DHT for the specific time points.
RNA-seq libraries were constructed using the TruSeq sample Prep Kit V2 (Illumina) according to the manufacturer's instructions. Briefly, 1 μg of purified RNA was poly-A selected and fragmented with fragmentation enzyme. […] The DNA library was quantitated using Qubit and normalized to 4 nM prior to pooling. […] Library pools were clustered and run on Nextseq500 platform (Illumina Inc.) with single-end reads of 75 bases.
Single-end sequencing reads were demultiplexed using Illumina bcl2fastq, quality checked using FASTQC (bioinformatics.babraham ac uk/projects/fastqc), and aligned to the GRCh37 (release 27) genome using the STAR v2.5.1 aligner, with default settings. The read statistics generated by STAR v2.5.1 was used to ensure that the aligned reads in all samples were over 90% of the total reads. […]
Genes differentially expressed between any two sets of treatment were determined using DESeq2 (bioconductor.org/packages/release/bioc/html/DESeq.html), a statistical tool that employs shrinkage estimates to compute fold changes. […]

Assay [2] concerns DU145 cells. Briefly: RNA-seq gene expression profiling. Particulars: DU145, 100 nM THZ1, 24 h. In kind it is cell-based, human. As to the method:
(§1) RNA-seq libraries were constructed using the TruSeq sample Prep Kit V2 (Illumina) according to the manufacturer's instructions. Briefly, 1 μg of purified RNA was poly-A selected and fragmented with fragmentation enzyme. After first and second strand synthesis from a template of poly-A selected/fragmented RNA, other procedures from end-repair to PCR amplification were performed according to the instructions given in the protocol. Libraries were purified and validated for appropriate size on a 2100 Bioanalyzer DNA 1000 chip (Agilent Technologies, Inc.). The DNA library was quantitated using Qubit and normalized to 4 nM prior to pooling. Libraries were pooled in an equimolar fashion and diluted to a final concentration of 1.8 pM. Library pools were clustered and run on Nextseq500 platform (Illumina Inc.) with single-end reads of 75 bases.
(§2) Single-end sequencing reads were demultiplexed using Illumina bcl2fastq, quality checked using FASTQC (bioinformatics.babraham ac uk/projects/fastqc), and aligned to the GRCh37 (release 27) genome using the STAR v2.5.1 aligner, with default settings. The read statistics generated by STAR v2.5.1 was used to ensure that the aligned reads in all samples were over 90% of the total reads. The transcripts were assembled using cufflinks and the count and FPKM tables were computed using cuffnorm. Principal component analysis on the FPKM values was used to cluster the samples for further quality check.
(§3) Genes differentially expressed between any two sets of treatment were determined using DESeq2 (bioconductor.org/packages/release/bioc/html/DESeq.html), a statistical tool that employs shrinkage estimates to compute fold changes. In all our calculations, the raw RNA-seq read counts from biological duplicates, for each treatment condition, was used as the input for DESeq2.

In assay [3] the test system is LNCaP cells. Briefly: RNA-seq gene expression profiling. In kind it is cell-based, human. The following applies: 100 nM THZ1, 24 h. As to the method: as §1, §2, §3
The subject of assay [4] is VCaP cells. Kind of assay: RNA-seq gene expression profiling. In kind it is cell-based, human. Particulars: 100 nM THZ1, 24 h. As for the experimental part:
as §1, §2, §3

In assay [5] the test system is chromatin-bound p-MED1/MED1. Kind of assay: Chromatin-bound protein extraction and immunoblot. The following applies: DHT-stimulated LNCaP, 6 h; THZ1 100 nM, enzalutamide 5 μM. In kind it is cell-based, human. As to the method:
Chromatin bound protein extraction was performed following the protocol described in Pawar et al. Briefly, 10 million cells were collected and washed with DPBS, and were resuspended in 250 μl Buffer A (10 mM HEPES pH 7.9, 10 mM KCl, 1.5 mM MgCl2, 0.34 M sucrose, 10% glycerol, 1 mM DTT) supplemented with 0.1% TritonX-100 and incubated on ice for 10 min. The nuclei pellet was collected by centrifugation at 1300×g for 5 min at 4° C., washed in Buffer A and centrifuged again with the same settings. The nuclear pellet was then resuspended in Buffer B (3 mM EDTA, 0.2 mM EGTA, 1 mM DTT) and incubated on ice for 30 min. The chromatin pellet was collected by centrifugation at 1700×g for 5 min at 4° C., washed in Buffer B and centrifuged again with the same settings. The proteins were incubated on ice in Buffer B with 150 mM NaCl for 20 min and centrifuged at 1700×g for 5 min to remove proteins soluble in 150 mM salt concentrations. The pellet was then incubated in Buffer B with 300 mM NaCl on ice for 20 min and centrifuged again at 1700×g to obtain the final chromatin pellet. The chromatin pellet was dissolved in sample buffer, sonicated for 15 seconds, and boiled at 95° C. for 10 min. Samples were analyzed using Immunoblot analysis as described previously. All buffers were supplemented with Pierce protease inhibitor and Halt protease & phosphatase inhibitors.
A general note: Immunoblotting shows a protein as a band on a membrane.

Assay [6] deals with CAK complex-CDK7/CyclinH/MAT1 (Homo sapiens, UniProt P50613). Briefly: In vitro kinase assay, CAK complex with GST-MED1 protein, immunoblot. Particulars: 60 min at 30° C. Format: biochemical.
Procedure: The kinase assay was performed by preparing the master mixture of 3 ul (5×) kinase assay buffer, 0.5 ul of 500 uM ATP (BPS Bioscience, 79603), 1.25 ul (1 ug/ul) Human Recombinant GST-MED1 protein (Lifespan Biosciences, LS-G59680-25), and 7.75 ul of kinase assay grade water per reaction for the desired number of reactions. […] Additionally, kinase assay reaction mixtures containing no ATP and CDK7 were used as negative controls. Next, CAK complex-CDK7/CyclinH/MAT1 enzyme (BPS Bioscience) was thawed and diluted to (10 ng/111) in 1× kinase assay buffer. The reactions were initiated by adding 10 ul of diluted CAK complex to the designated wells and incubated at 30° C. for 60 min. After the incubation the reaction was stopped, and the mixture were analyzed through western blotting.

SMILES strings stand for the structures.

Chain of CAK complex-CDK7/CyclinH/MAT1 (P50613 whole entry): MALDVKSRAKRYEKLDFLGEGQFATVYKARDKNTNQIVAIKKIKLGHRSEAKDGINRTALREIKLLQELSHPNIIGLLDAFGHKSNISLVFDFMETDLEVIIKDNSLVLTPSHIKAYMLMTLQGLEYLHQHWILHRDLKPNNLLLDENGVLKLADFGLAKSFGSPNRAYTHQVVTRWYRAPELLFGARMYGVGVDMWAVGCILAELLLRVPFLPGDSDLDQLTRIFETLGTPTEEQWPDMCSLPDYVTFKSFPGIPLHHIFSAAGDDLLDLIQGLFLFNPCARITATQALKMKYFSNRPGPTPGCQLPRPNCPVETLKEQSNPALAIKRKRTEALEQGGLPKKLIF
Chain of CAK complex-CDK7/CyclinH/MAT1 (P51946 whole entry partner): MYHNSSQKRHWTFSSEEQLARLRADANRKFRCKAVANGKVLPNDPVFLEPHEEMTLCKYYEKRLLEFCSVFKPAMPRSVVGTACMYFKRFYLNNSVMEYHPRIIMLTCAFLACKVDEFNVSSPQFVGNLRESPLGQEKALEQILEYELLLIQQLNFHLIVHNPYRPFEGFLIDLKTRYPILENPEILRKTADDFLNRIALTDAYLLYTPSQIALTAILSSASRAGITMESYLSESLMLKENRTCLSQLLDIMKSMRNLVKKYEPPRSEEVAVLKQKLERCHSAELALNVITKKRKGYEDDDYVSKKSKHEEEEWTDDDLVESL
Chain of CAK complex-CDK7/CyclinH/MAT1 (P51948 whole entry partner): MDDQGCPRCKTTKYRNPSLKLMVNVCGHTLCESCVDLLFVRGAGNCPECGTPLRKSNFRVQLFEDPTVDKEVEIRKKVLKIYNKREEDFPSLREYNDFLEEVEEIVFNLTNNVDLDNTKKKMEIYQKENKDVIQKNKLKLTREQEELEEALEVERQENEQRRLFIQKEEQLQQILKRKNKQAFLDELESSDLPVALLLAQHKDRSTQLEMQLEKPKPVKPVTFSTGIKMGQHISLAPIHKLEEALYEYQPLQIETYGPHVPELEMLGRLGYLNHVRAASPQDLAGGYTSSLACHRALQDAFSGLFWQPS

As to `CN(C)C/C=C/C(=O)Nc1ccc(C(=O)Nc2cccc(Nc3ncc(Cl)c(-c4c[nH]c5ccccc45)n3)c2)cc1` [THZ1], in assay [1], the “genome-wide DHT-induced differentially expressed AR target genes” value is on record as “completely reversed almost all”. Further, the “genes down (RNA-seq)” value in assay [2] is 190; in assay [3], 1695; in assay [4], 1203. Also, the “genes up (RNA-seq)” value in assay [2] is given as 191; in assay [3], 2612; in assay [4], 1325. Also, the “chromatin-bound levels of p-MED1/MED1” value in assay [5] is listed as “complete loss in the chromatin-bound levels of p-MED1/MED1”. Further, the “Threonine phosphorylation of GST-MED1 (aa 1391-1490) at T1457” value in assay [6] is on record as “completely inhibited”.

Values taken from patent publication US12678438B2, “Treatment of cancer with CDK inhibitors” (THE TRUSTEES OF THE UNIVERSITY OF PENNSYLVANIA, priority 2019, dated 2026).
